Source: article PMC8219695 (Nature Communications, 2021)
Values joined by “and” are separate entries in the source; they are usually repeats but may differ in a detail not shown here. Equal values may be shown once.

Columns and labels:
Assay type in all cases: cell-based
mDOR = biological target: T1, mDOR (Mus musculus, UniProt P32300); assay: CAMYEL BRET cAMP agonist assay at mDOR; conditions: for Agonist activity of 7OH analogs at mDOR: single replicate values, Supplementary Figure 7B
T1 construct: expressed in transfected cells

hDOR = hDOR (Homo sapiens, UniProt P41143); assay: CAMYEL BRET cAMP agonist assay at hDOR; conditions: for Agonist activity of 7OH analogs at hDOR: single replicate values, Supplementary Figure 7A
rKOR = biological target: T2, rKOR (Rattus norvegicus, UniProt P34975); assay: CAMYEL BRET cAMP agonist assay at rKOR; conditions: individual replicates, Supplementary Figure 8B source data
T2 construct: expressed in transfected cells

hKOR = hKOR (Homo sapiens, UniProt P41145); assay: CAMYEL BRET cAMP agonist assay at hKOR; conditions: individual replicates, Supplementary Figure 8A source data
Chain of hKOR (P41145 whole entry): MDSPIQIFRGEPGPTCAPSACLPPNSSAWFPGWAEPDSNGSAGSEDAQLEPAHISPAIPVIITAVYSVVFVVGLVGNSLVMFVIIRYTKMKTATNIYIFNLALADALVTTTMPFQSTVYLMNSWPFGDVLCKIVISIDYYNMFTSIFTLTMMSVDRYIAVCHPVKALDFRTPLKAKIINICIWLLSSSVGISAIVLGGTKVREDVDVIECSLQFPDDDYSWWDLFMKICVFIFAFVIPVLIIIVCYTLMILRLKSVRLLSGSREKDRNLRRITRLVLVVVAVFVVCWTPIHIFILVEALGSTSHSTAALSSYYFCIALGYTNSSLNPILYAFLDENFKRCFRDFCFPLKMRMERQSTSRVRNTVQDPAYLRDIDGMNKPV

T2 sequence (P34975 whole entry): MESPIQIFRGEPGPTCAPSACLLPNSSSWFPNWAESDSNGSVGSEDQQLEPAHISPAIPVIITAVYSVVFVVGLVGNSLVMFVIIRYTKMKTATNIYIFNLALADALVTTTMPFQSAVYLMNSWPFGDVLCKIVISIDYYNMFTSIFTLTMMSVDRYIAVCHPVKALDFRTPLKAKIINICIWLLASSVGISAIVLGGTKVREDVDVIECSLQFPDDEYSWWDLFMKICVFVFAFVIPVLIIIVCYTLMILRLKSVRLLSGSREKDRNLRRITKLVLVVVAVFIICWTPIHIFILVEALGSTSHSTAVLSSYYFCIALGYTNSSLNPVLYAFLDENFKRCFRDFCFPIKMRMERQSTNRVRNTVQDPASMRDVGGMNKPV
Chain of hDOR (P41143 whole entry): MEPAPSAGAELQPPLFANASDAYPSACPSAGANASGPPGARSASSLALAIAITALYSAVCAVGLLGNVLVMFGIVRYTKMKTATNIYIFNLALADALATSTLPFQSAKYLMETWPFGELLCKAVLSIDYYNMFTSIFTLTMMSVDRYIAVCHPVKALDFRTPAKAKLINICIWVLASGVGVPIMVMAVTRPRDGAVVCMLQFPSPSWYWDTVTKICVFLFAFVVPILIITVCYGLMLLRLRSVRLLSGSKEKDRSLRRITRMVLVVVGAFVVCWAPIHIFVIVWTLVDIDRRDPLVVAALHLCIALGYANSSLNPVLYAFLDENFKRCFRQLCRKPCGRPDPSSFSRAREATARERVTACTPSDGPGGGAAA
T1 sequence (P32300 whole entry): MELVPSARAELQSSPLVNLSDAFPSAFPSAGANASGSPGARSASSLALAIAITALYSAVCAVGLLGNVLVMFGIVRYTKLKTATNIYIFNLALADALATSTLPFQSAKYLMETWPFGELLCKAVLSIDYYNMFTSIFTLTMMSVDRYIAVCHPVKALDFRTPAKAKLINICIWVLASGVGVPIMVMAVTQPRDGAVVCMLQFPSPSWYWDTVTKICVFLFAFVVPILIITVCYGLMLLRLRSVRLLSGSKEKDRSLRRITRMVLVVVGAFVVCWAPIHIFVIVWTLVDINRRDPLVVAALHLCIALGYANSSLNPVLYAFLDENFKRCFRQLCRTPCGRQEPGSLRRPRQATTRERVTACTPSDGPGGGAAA

## CC[C@@H]1CN2CC[C@@]3(O)C(=Nc4cc(Br)cc(OC)c43)[C@@H]2C[C@@H]1/C(=C\OC)C(=O)OC [11-Br-7OH (24), 11-Br-7OH]
mDOR; Log[drug] (M) -6
  Agonist activity of 7OH analogs at mDOR: 28.5316 and 7.81 and 20.2665 and 20.4093 and 17.1261 and 17.3487 and 14.4976 and 7.195 and 12.5927
mDOR; Log[drug] (M) -7
  Agonist activity of 7OH analogs at mDOR: 11.1893 and 13.4547 and 27.5656 and 14.54 and 12.7942 and 5.698 and 4.253 and 2.065 and 7.661
mDOR; Log[drug] (M) -8
  Agonist activity of 7OH analogs at mDOR: 10.5957 and 18.0747 and 9.651 and 4.935 and -3.078 and 4.75 and 6.109 and 1.285 and 9.808
mDOR; Log[drug] (M) -9
  Agonist activity of 7OH analogs at mDOR: 17.3278 and 15.5005 and 47.145 and -2.094 and 7.434 and -5.339 and 5.642 and -1.53 and 3.1
mDOR; Log[drug] (M) -10
  Agonist activity of 7OH analogs at mDOR: 8.93 and 5.939 and 6.52 and 4.461 and 5.129 and -1.733 and 2.478 and 3.975 and -1.971
mDOR; Log[drug] (M) -11
  Agonist activity of 7OH analogs at mDOR: 10.869 and 6.17 and -5.4274 and 13.8383 and 9.771 and 11.6667 and 2.792 and -1.117 and -1.6751
mDOR; Log[drug] (M) -13
  Agonist activity of 7OH analogs at mDOR: -4.49 and 2.526 and 1.964 and 13.4101 and 7.388 and 17.2326 and -5.081 and 4.508 and 13.385
mDOR; mDOR cAMP BRET, positive control DPDPE
  Emax: very low efficacy
hDOR; Log[drug] (M) -5
  Agonist activity of 7OH analogs at hDOR: 4.7 and 25.3039 and 6.573 and 24.0158 and 10.0458 and 10.1909 and 12.9945 and 10.3075
hDOR; Log[drug] (M) -6
  Agonist activity of 7OH analogs at hDOR: 13.1842 and 10.2252 and 8.595 and 5.73 and 12.7267 and 14.3479 and 6.336 and 13.8749
hDOR; Log[drug] (M) -7
  Agonist activity of 7OH analogs at hDOR: 14.5317 and -1.155 and 1.334 and 28.0039 and 13.2568 and 5.897 and 5.1203 and 15.4297
hDOR; Log[drug] (M) -8
  Agonist activity of 7OH analogs at hDOR: 10.6504 and 18.084 and 4.153 and 20.0173 and 1.0999 and 15.8027 and 12.7278 and 11.7823 and 20.1626
hDOR; Log[drug] (M) -9
  Agonist activity of 7OH analogs at hDOR: 19.553 and 11.3403 and 28.4089 and 9.179 and -1.427 and -6.158 and 5.452 and 0.7244 and 17.3106
hDOR; Log[drug] (M) -10
  Agonist activity of 7OH analogs at hDOR: 3.839 and 3.779 and 7.219 and -2.673 and 3.726 and -0.9121 and -0.9075 and -0.119 and 1.027
hDOR; Log[drug] (M) -11
  Agonist activity of 7OH analogs at hDOR: 6.722 and 21.7822 and 0.8452 and 0.831 and -3.07 and 2.24 and 15.2814 and 3.682 and 0.8607
hDOR; Log[drug] (M) -13
  Agonist activity of 7OH analogs at hDOR: -12.8405 and 3.455 and 9.386 and 2.252 and 8.162 and 14.0199 and 6.2368 and 9.608 and 10.0864
hDOR; hDOR cAMP BRET, positive control DPDPE
  Emax: very low efficacy
rKOR; Log [drug](M) -5
  Agonist activity of 7OH analogs at rKOR: 25.6296 and -9.743 and 0.6611 and 8.628 and -4.988 and 6.198 and 4.323 and 3.4884 and 6.258
rKOR; Log [drug](M) -6
  Agonist activity of 7OH analogs at rKOR: 5.472 and -3.314 and -2.157 and 12.7013 and 24.7501 and 18.1661 and 1.856 and -1.539 and -0.3161
rKOR; Log [drug](M) -7
  Agonist activity of 7OH analogs at rKOR: 4.7985 and -15.0915 and 10.4804 and 13.2829 and 19.8014 and 0.6752 and 3.169 and 0.0803 and -0.9699
rKOR; Log [drug](M) -8
  Agonist activity of 7OH analogs at rKOR: 15.8006 and 9.743 and 5.004 and 1.565 and 3.381 and -4.9468 and 4.551 and 0.2655 and 16.2208
rKOR; Log [drug](M) -9
  Agonist activity of 7OH analogs at rKOR: 2.391 and 0.4693 and -2.7298 and 8.844 and 10.6443 and -8.128 and 0.4192 and -1.635 and 9.514
rKOR; Log [drug](M) -10
  Agonist activity of 7OH analogs at rKOR: -3.09 and -6.057 and 13.4494 and 16.7517 and 7.424 and 2.462 and 3.397 and 1.924 and 5.164
rKOR; Log [drug](M) -11
  Agonist activity of 7OH analogs at rKOR: -9.158 and 9.8247 and 5.5119 and -1.702 and 25.9779 and 16.6823 and 6.047 and 6.143 and 5.108
rKOR; Log [drug](M) -13
  Agonist activity of 7OH analogs at rKOR: -5.115 and 8.484 and 8.583 and 29.3433 and 7.52 and 9.7517 and 3.9044 and 5.761 and 8.186
hKOR; Log [drug](M) -5
  Agonist activity of 7OH analogs at hKOR: 10.9149 and -7.215 and 4.286 and 11.8421 and 11.499 and 10.9733 and -4.579 and 2.634 and 3.416
hKOR; Log [drug](M) -6
  Agonist activity of 7OH analogs at hKOR: 3.035 and -0.7724 and -13.4731 and 3.219 and -0.695 and 8.186 and -5.571 and -3.171 and 0.4347
hKOR; Log [drug](M) -7
  Agonist activity of 7OH analogs at hKOR: -0.1722 and -16.4342 and -16.1746 and -2.26 and -3.79 and -3.25 and 0.1411 and 2.3 and 5.19
hKOR; Log [drug](M) -8
  Agonist activity of 7OH analogs at hKOR: 22.3379 and -4.57 and 1.209 and 8.576 and -8.308 and -4.317 and 11.4126 and 9.041 and 4.453
hKOR; Log [drug](M) -9
  Agonist activity of 7OH analogs at hKOR: 2.393 and 14.1276 and 3.431 and 19.0489 and 8.55 and -5.559 and -3.604 and -6.454 and -4.21
hKOR; Log [drug](M) -10
  Agonist activity of 7OH analogs at hKOR: -9.31 and -5.502 and 19.956 and 11.266 and -0.5812 and -7.816 and -4.981 and -0.9266 and -11.4459
hKOR; Log [drug](M) -11
  Agonist activity of 7OH analogs at hKOR: 21.966 and -9.511 and 21.9409 and -12.3295 and 2.605 and 7.521 and 2.85 and -2.233 and 3.089
hKOR; Log [drug](M) -13
  Agonist activity of 7OH analogs at hKOR: -3.621 and -4.92 and 8.541 and 7.349 and -4.448 and -2.901 and 2.036 and -3.052 and 1.015
